# ChEMBL document CHEMBL1154622, “Structure-guided design of potent and selective pyrimidylpyrrole inhibitors of extracellular signal-regulated kinase (ERK) using conformational control” (J Med Chem, 2009)
# pIC50, pKi: −log10 of the molar value.
# Tests used:
# [1] = molecular target: Mitogen-activated protein kinase 1 (Homo sapiens, UniProt P28482)
# Description: Inhibition of ERK2 after 10 mins by spectrophotometric coupled-enzyme assay
# [2] = Inhibition of GSK3
# HT-29 = assay: Antiproliferative activity against human HT-29 cells; assay type: functional, cell-based
# [3] = molecular target: Cyclin-dependent kinase 2 (Homo sapiens, UniProt P24941)
# Aurora kinase A = molecular target: T1, Aurora kinase A (Homo sapiens, UniProt O14965); assay: Inhibition of AURA
# T1 sequence (O14965 whole entry): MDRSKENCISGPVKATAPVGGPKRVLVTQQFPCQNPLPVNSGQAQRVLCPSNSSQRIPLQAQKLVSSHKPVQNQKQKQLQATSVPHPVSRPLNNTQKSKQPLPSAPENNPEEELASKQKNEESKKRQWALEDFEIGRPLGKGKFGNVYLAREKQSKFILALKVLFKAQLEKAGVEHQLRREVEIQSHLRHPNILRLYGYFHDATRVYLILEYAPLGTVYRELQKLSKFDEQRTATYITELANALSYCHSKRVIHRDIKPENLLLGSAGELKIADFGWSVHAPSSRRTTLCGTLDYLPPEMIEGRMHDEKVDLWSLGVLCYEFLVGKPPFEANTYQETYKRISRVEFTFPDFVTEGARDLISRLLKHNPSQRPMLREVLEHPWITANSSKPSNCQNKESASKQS
# Chain of Mitogen-activated protein kinase 1 (P28482 whole entry): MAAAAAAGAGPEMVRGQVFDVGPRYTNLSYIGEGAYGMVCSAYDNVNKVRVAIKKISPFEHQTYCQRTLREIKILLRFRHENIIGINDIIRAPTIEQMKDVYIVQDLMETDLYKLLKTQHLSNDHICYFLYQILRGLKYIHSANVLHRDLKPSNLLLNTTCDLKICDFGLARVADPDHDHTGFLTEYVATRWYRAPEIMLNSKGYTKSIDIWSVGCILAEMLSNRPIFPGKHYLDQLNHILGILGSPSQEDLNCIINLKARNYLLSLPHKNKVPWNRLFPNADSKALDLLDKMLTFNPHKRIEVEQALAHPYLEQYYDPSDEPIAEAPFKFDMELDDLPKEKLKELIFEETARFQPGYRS
SMILES,pKi [1],pKi [2],pIC50 (HT-29),pKi [3],pKi (Aurora kinase A)
CCc1ccccc1Nc1ncc(C)c(-c2c[nH]c(C(=O)N[C@H](CO)c3ccccc3)c2)n1,8.52,6.12,7.18,6.68,5.84
COc1cccc(Nc2ncc(C)c(-c3c[nH]c(C(=O)N[C@H](CO)c4cccc(Cl)c4)c3)n2)c1OC,8.52,< 5.60,6.64,< 5.60,< 6.70
Cc1cnc(Nc2cccc(C)c2C)nc1-c1c[nH]c(C(=O)N[C@H](CO)c2cccc(Cl)c2)c1,> 8.70,6.96,–,7.39,6.36
Cc1ccccc1Nc1ncc(C)c(-c2c[nH]c(C(=O)N[C@H](CO)c3cccc(Cl)c3)c2)n1,–,> 8.70,–,–,6.40
Cc1cnc(Nc2ccccc2)nc1-c1c[nH]c(C(=O)N[C@H](CO)c2cccc(Cl)c2)c1,> 8.70,6.85,7.00,6.54,7.72
Cc1cnc(Nc2ccccc2)nc1-c1c[nH]c(C(=O)N[C@H](CO)c2ccccc2)c1,> 8.70,–,7.54,–,7.82
Cc1cnc(Nc2ccccc2Cl)nc1-c1c[nH]c(C(=O)N[C@H](CO)c2ccccc2)c1,> 8.70,6.72,–,6.62,5.81
Cc1cnc(Nc2cccc3c2OC(F)(F)O3)nc1-c1c[nH]c(C(=O)N[C@H](CO)c2cccc(Cl)c2)c1,> 8.70,6.51,6.55,6.77,< 6.10
Cc1cnc(Nc2cccc3c2OCCO3)nc1-c1c[nH]c(C(=O)N[C@H](CO)c2cccc(Cl)c2)c1,7.82,7.35,7.24,6.86,7.96
Cc1cc(Cl)ccc1Nc1ncc(C)c(-c2c[nH]c(C(=O)N[C@H](CO)c3cccc(Cl)c3)c2)n1,8.30,5.96,7.01,7.12,6.39
Cc1cnc(Nc2cccc3c2OCO3)nc1-c1c[nH]c(C(=O)N[C@H](CO)c2cccc(Cl)c2)c1,> 8.70,7.48,7.24,6.68,7.82
Cc1ccccc1Nc1ncc(C)c(-c2c[nH]c(C(=O)N[C@H](CO)c3ccccc3)c2)n1,–,–,–,–,6.07
Cc1cnc(Nc2cccc3c2CCC3)nc1-c1c[nH]c(C(=O)N[C@H](CO)c2cccc(Cl)c2)c1,> 8.70,6.46,6.60,6.19,6.26
Cc1cnc(Nc2ccccc2C(F)(F)F)nc1-c1c[nH]c(C(=O)N[C@H](CO)c2ccccc2)c1,–,–,5.20,< 5.40,< 6.10
Cc1cnc(Nc2ccccc2)nc1-c1c[nH]c(C(=O)N[C@@H](CO)c2ccccc2)c1,6.17,–,–,–,6.57
Cc1cnc(Nc2ccccc2O)nc1-c1c[nH]c(C(=O)N[C@H](CO)c2ccccc2)c1,8.40,> 8.70,5.52,> 7.00,7.00
Cc1cnc(Nc2cccc3c2CCCC3)nc1-c1c[nH]c(C(=O)N[C@H](CO)c2cccc(Cl)c2)c1,7.89,6.18,6.38,6.60,6.55
Cc1cnc(Nc2ccc(Cl)cc2F)nc1-c1c[nH]c(C(=O)N[C@H](CO)c2cccc(Cl)c2)c1,8.30,6.35,7.01,6.50,6.27
Cc1cnc(Nc2ccccc2F)nc1-c1c[nH]c(C(=O)N[C@H](CO)c2ccccc2)c1,> 8.70,7.35,7.59,7.24,6.80
Cc1cccc([C@@H](CO)NC(=O)c2cc(-c3nc(Nc4ccccc4)ncc3C)c[nH]2)c1,> 8.70,7.59,7.40,7.16,7.35
Cc1cnc(Nc2cccc(F)c2C)nc1-c1c[nH]c(C(=O)N[C@H](CO)c2cccc(Cl)c2)c1,7.47,5.90,7.25,6.82,6.39
CCc1ccccc1Nc1ncc(C)c(-c2c[nH]c(C(=O)N[C@H](CO)c3cccc(Cl)c3)c2)n1,> 8.70,6.82,7.41,6.35,6.14
